Results: patent US12384765B2, “Catecholamine prodrugs for use in the treatment of Parkinson's Disease” (H. Lundbeck A/S, priority 2019, dated 2025)
Entries after “also recorded” stand apart in the source; their conditions may differ.

Tests used:
human 5-HT2B receptor = human 5-HT2B receptor (Homo sapiens (Human), UniProt P41595); assay: 5-HT2B agonist activity assay (IP1 production, HTRF); type: cell-based; conditions: read-out: 5-HT2B agonist activity, percent of control response
Procedure: Evaluation of the agonist activity of compounds (I), (Ia), (Ib), (Ic), (Ia-iab), compound (2), compound (9), compound (15), compound (27), A2, A3, and A7 at the human 5-HT2B receptor was performed by Eurofins/Cerep (France) measuring the compound effects on inositol monophosphate (IP1) production using the HTRF detection method. Briefly, the human 5-HT2B receptor was expressed in transfected CHO cells. The cells were suspended in a buffer containing 10 mM Hepes/NaOH (pH 7.4), 4.2 mM KCl, 146 mM NaCl, 1 mM CaCl2, 0.5 mM MgCl2, 5.5 mM glucose and 50 mM LiCl, then distributed in microplates at a density of 4100 cells/well and incubated for 30 minutes at 37° C. in the presence of buffer (basal control), test compound or reference agonist. For stimulated control measurement, separate assay wells contained 1 μM 5-HT. Following incubation, the cells were lysed and the fluorescence acceptor (fluorophen D2-labeled IP1) and fluorescence donor (anti-IP1 antibody labeled with europium cryptate) were added. After 60 minutes at room temperature, the fluorescence transfer was measured at lambda(Ex) 337 nm and lambda(Em) 620 and 665 nm using a microplate reader (Rubystar, BMG). The IP1 concentration was determined by dividing the signal measured at 665 nm by that measured at 620 nm (ratio). The results were expressed as a percent of the control response to 1 μM 5-HT. The standard reference agonist was 5-HT, which was tested in each experiment at several concentrations to generate a concentration-response curve from which its EC50 value is calculated as described above for dopamine functional assays.

human hepatocytes = assay: Conversion of compounds in human hepatocytes; type: in vitro ADME; conditions: 1 μM compound, 37° C.; nd: not detected
Procedure: Incubations were conducted in 96-well plates at 1 μM compound concentration in duplicate. The hepatocyte cell concentration was 0.5×10^6 cells/mL used for final incubation at 37° C. in an incubator of 5% CO2 95% relative humidity. The medium control samples were included at 0 and 60 minutes in the absence of cells. The total organic concentration was 1% (DMSO 0.1%) in the final incubation. The controls, (7-ethoxycoumarin and 7-hydroxycoumarin) was incubated parallel at 3 μM. 2 μL of dosing solution (50 μM for test compounds and 100 μM for positive control) was mixed with 98 μL of 100 mM PBS to achieve 1 μM test compound and 2 μM positive control of final concentration. The mixture was incubated, and samples were withdrawn from the incubations at pre-determined time points of 0, 0.5, 1, 2, 4 and 6 hr (in duplicate) at 37° C. in water bath. To each sample, 10 μL inhibitor and 20 μL ascorbic acid and 2 μL formic acid (20%) were added followed by 400 μL of stop solution (200 ng/mL tolbutamide plus 200 ng/mL labetalol in 50% ACN/MeOH). The substance was mixed thoroughly and thereafter centrifuged at 4,000 rpm for 20 minutes. An aliquot of supernatant (50 μL) from each well were transferred to a sample plate and mixed with 100 μL ultrapure water. The plate was shaked at 800 rpm for about 10 minutes before submitting to LC-MS/MS analysis.
(§1) Mass spectrometer (LC-MS/MS) Shimadzu LC 20-AD Shimadzu UHPLC API 4000. Analytical column ACQUITY UPLC® BEH Phenyl 1.7 μm 2.1×50 mm. Mobile phase A: 0.1% Formic Acid in Water. Mobile phase B: 0.1% Formic Acid in Acetonitrile. […] Flow rate 0.7 mL/min.

[1] = PK experiments in rats, plasma compound (I) after oral dosing; type: in vivo, Han Wistar rats; conditions: oral dosing, rats
Procedure: Plasma was placed on water-ice following collection. Final storage at approximately −70° C.
Mobile phase B: Acetonitrile. […] Flow rate 0.5 mL/min.
The rats had unrestricted access to the diet.
Mobile phase B: Acetonitrile+0.2% formic acid. […] Flow rate 0.3 mL/min.
The rats received a standard laboratory diet Teklad 2014C. The rats had unrestricted access to the diet.

[2] = Conversion of compounds in human plasma; type: in vitro ADME; conditions: for Observed metabolite, Incubation in human plasma: 1 μM test compound, 37° C., 0-6 hr, nd: not detected
Procedure: Frozen human plasma was thawed and then centrifuged at 3200×g for 5 min to remove debris. The pH value of the supernatant was then measured and adjusted to 7.4±0.1 by adding 1% phosphoric acid or 1 N sodium hydroxide. 2 μL of dosing solution (50 μM for test compounds and 100 μM for positive control (propantheline bromide)) was mixed with 98 μL of blank plasma to achieve 1 μM test compound and 2 μM positive control of final concentration. The mixture was incubated, and samples were withdrawn from the incubations at the pre-determined time points of 0, 0.5, 1, 2, 4 and 6 hr (in duplicate) at 37° C. in water bath. At each corresponding time point 10 μL inhibitor and 20 μL ascorbic acid and 2 μL formic acid (20%) are added, and then added 400 μL of “stop solution” (200 ng/mL tolbutamide plus 200 ng/mL labetalol in 50% ACN/MeOH) to precipitate protein. The substance was mixed thoroughly and thereafter Centrifugated at 4,000 rpm for 20 minutes. Then an aliquot of supernatant (50 μL) was transferred from each well to a sample plate and mixed with 100 μL ultrapure water. The plate was shaked at 800 rpm for about 10 minutes before submitting to LC-MS/MS analysis.
as §1

male CD rats = assay: Rat locomotor activity (hyperactivity) assay, open field; type: in vivo; conditions: for end of locomotor effect post administration: recording until 415-minute time point
Procedure: In total, 206 male CD rats (Charles River, Germany) weighing 200-250 grams (165-190 grams upon arrival) were used in the study. Animals were housed at a standard temperature (22±1° C.) and in a light-controlled environment (lights on from 7 am to 8 pm) with ad libitum access to food and water. The experiment described below was performed in accordance with the standard operating procedures of Charles River Discovery Research Services Finland Ltd. and in accordance with the national Animal Experiment Board of Finland (Elainkoelautakunta, ELLA) authority on animal testing.
The test device is a square Plexiglass-arena (measuring 40×40×40 cm), in which the movement paths of the rats are recorded by an activity monitor (Med. Associates Inc.). Before the test period is initiated, rats are habituated to their test cage for 60 minutes. Upon completion of habituation, animals were treated with either compound or vehicle and placed back into the open field apparatus. The main test parameter measured is ambulatory distance (recorded in 5 minute segments). Overall time of measurement after receiving initial treatment was 360 minutes. Total follow up period in the study was 420 minutes, including 60 minutes of habituation.
Blood samples were taken and processed and analyzed as described under PK experiments in rats in Example 3.

[3] = WO 2010/097092; cited from earlier work
[4] = Liu et al., Bioorganic Med. Chem. (2008); cited from earlier work
[5] = in man after oral dosing; cited from earlier work
[6] = intravenous (IV), PD patients; cited from earlier work
[7] = In vitro dopaminergic activity (data not shown)
[8] = (Id-ia) 10 to 300 μg/kg p.o., apomorphine 3 mg/kg s.c.
[9] = (Id-ia) 10 to 300 μg/kg p.o., apomorphine 3 mg/kg s.c., pramipexole 0.3 mg/kg s.c.

human 5-HT2B receptor, sequence (P41595 whole entry): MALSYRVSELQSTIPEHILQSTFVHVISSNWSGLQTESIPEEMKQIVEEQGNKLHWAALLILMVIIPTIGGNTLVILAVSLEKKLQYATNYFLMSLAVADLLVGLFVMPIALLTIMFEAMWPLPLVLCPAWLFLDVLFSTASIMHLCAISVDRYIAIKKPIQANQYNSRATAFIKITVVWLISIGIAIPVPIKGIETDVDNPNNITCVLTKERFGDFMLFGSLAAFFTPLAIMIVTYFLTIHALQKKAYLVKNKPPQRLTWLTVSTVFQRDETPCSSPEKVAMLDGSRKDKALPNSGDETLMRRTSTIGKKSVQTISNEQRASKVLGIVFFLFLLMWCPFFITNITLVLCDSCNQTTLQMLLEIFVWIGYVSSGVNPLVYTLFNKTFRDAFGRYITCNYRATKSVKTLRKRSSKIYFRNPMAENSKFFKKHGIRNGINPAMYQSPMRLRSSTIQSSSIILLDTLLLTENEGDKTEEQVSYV

CCCN1CCC[C@@H]2Cc3c(ccc(OC)c3O)C[C@H]21 [Compound A7, (4aR,10aR)-7-methoxy-1-propyl-1,2,3,4,4a,5,10,10a-octahydrobenzo[g]quinolin-6-ol]
activity at 10 µM (human 5-HT2B receptor): 27% | Observed metabolite, Incubation in human hepatocytes (human hepatocytes): Compound (I) | Observed metabolite, In vivo PK study after oral dosing (rats) [1]: Compound (I)

CCCN1CCC[C@@H]2Cc3c(ccc(O[C@@H]4O[C@H](C(=O)O)[C@@H](O)[C@H](O)[C@H]4O)c3O[C@@H]3O[C@H](C(=O)O)[C@@H](O)[C@H](O)[C@H]3O)C[C@H]21 [(Id-iab), (2S,2′S,3S,3′S,4S,4′S,5R,5′R,6S,6′S)-6,6′-(((4aR,10aR)-1-propyl-1,2,3,4,4a,5,10,10a-octahydrobenzo[g]quinoline-6,7-diyl)bis(oxy))bis(3,4,5-trihydroxytetrahydro-2H-pyran-2-carboxylic acid)]
Observed metabolite, Incubation in human plasma [2]: Compound (I) | Observed metabolite, Incubation in human hepatocytes (human hepatocytes): Compound (I) | Observed metabolite, In vivo PK study after oral dosing (rats) [1]: Compound (I)

CN1CCc2cccc3c2[C@H]1Cc1ccc(O)c(O)c1-3 [apomorphine, reference compound]
end of locomotor effect post administration (male CD rats; [8]): 1.5 h

CCCN1CCC[C@@H]2Cc3c(ccc(O)c3O)C[C@H]21 [(I), (4aR,10aR)-1-Propyl-1,2,3,4,4a,5,10,10a-octahydro-benzo[g]quinoline-6,7-diol]
half-life in the plasma assay ([2]; human plasma): short half-life | in vivo pharmacology in animal models relevant for Parkinson's Disease [3]: effective | oral bioavailability (in words) [4]: low oral bioavailability

CCCN[C@H]1CCc2nc(N)sc2C1 [Pramipexole, pramipexole, reference compound]
effect on locomotor activity (male CD rats; [9]): increase in activity

CCCc1cc2c(s1)CN[C@@H]1CCc3cc(OC(C)=O)c(OC(C)=O)cc3[C@@H]21 [Adrogolide, adrogolide]
oral bioavailability [5]: ~4% | antiparkinson efficacy [6]: comparable to that of L-DOPA

CCCN1CCC[C@@H]2Cc3c(ccc(O)c3O[C@@H]3O[C@H](C(=O)O)[C@@H](O)[C@H](O)[C@H]3O)C[C@H]21 [(Id-ia), (2S,3S,4S,5R,6S)-3,4,5-trihydroxy-6-(((4aR,10aR)-7-hydroxy-1-propyl-1,2,3,4,4a,5,10,10a-octahydrobenzo[g]quinolin-6-yl)oxy)tetrahydro-2H-pyran-2-carboxylic acid]
effect on locomotor activity (male CD rats; [9]): dopaminergic effect; also recorded: increases locomotor activity | start of locomotor effect post-administration (male CD rats; [9]): ~2 h | end of locomotor effect post administration (male CD rats; [8]): lasting until the end of recording | total distance travelled (male CD rats; relative to vehicle, FIG. 4): significantly increased activity | Observed metabolite, In vivo PK study after oral dosing (rats) [1]: Compound (I) | in vitro dopaminergic activity [7]: no in vitro dopaminergic activity

CCCN1CCC[C@@H]2Cc3c(ccc(OCc4ccccc4)c3O[C@@H]3O[C@H](C(=O)OCc4ccccc4)[C@@H](OC(=O)C(C)(C)C)[C@H](OC(=O)C(C)(C)C)[C@H]3OC(=O)C(C)(C)C)C[C@H]21 [Compound (5), (2S,3R,4S,5S,6S)-2-(((4aR,10aR)-7-(benzyloxy)-1-propyl-1,2,3,4,4a,5,10,10a-octahydrobenzo[g]quinolin-6-yl)oxy)-6-((benzyloxy)carbonyl)tetrahydro-2H-pyran-3,4,5-triyl tris(2,2-dimethylpropanoate)]
Observed metabolite, Incubation in human plasma [2]: Compound (24) | Observed metabolite, Incubation in human hepatocytes (human hepatocytes): Compound (24)

CCCN1CCC[C@@H]2Cc3c(ccc(OCc4ccccc4)c3O[C@@H]3O[C@H](C(=O)OCC)[C@@H](OC(C)=O)[C@H](OC(C)=O)[C@H]3OC(C)=O)C[C@H]21 [Compound (10), (2S,3R,4S,5S,6S)-2-(((4aR,10aR)-7-(benzyloxy)-1-propyl-1,2,3,4,4a,5,10,10a-octahydrobenzo[g]quinolin-6-yl)oxy)-6-(ethoxycarbonyl)tetrahydro-2H-pyran-3,4,5-triyl triacetate]
Observed metabolite, Incubation in human plasma [2]: Compound A2,; also recorded: Compound (4) | Observed metabolite, Incubation in human hepatocytes (human hepatocytes): Compound A2,; also recorded: Compound (4)
